Test results published in PMC3927474, “Whole body synthesis rates of DHA from α-linolenic acid are greater than brain DHA accretion and uptake rates in adult rats” (Journal of Lipid Research, 2014).
“And” between values parts separate entries of the source, which are not always exact repeats. Identical values can stand only once. Marks after values point to notes of the source that are not given here.

Key:
[1] = Balance study: n-3 and n-6 PUFA balance (intake, excretion, accretion, metabolic consumption); format: in vivo, rat; conditions: for Fecal excretion: mean % excretion applied to intake; for Fecal excretion / Metabolic consumption of dietary PUFAs: DHA group: refers to DHA; for Dietary PUFA excreted in the feces: 24 h feces at 8 weeks postweaning, percentage of intake; for Metabolic consumption of dietary PUFAs: n-3 PUFA, Eq. 1, 15 weeks
Method: All procedures were performed in accordance with the policies set out by the Canadian Council on Animal Care and were approved by the Animal Ethics Committee at the University of Toronto. Three Long Evans dams each with 18-day-old male Long Evans pups were ordered from Charles River Laboratories (St. Constant, QC, Canada). Pups were nonlittermates and each dam was housed with pups. Upon arrival, dams were allocated to one of the three diets (described below). When the pups were 21 days old, two pups from each dam were euthanized by high-energy head-focused microwave fixation (4.5 kW for 0.9 s). Brains were removed immediately and stored at -80°C until lipid analysis. Bodies were also stored at -80°C immediately after euthanization until analysis. The brains and bodies of these pups were used to determine the PUFA content of the rats at weaning (i.e., baseline PUFA content). […] For the balance study, the rats were weighed, food intake was determined, and uneaten food was replaced with fresh food on a weekly basis. Rats were euthanized by CO2 asphyxiation. Brains were removed and dissected sagittally. Carcasses and one half brain per rat were stored immediately at -80°C (to be later analyzed for lipid content). […] For the steady-state infusion study and the brain DHA uptake study, a jugular vein catheter was surgically implanted into the rats. […] Carcasses were thawed overnight in a refrigerator at 3°C, cut into pieces, and passed through a #12 hand grinder. After the whole body had passed through the grinder once, the homogenate was mixed together by hand and passed at least one more time through the grinder until the mixture was sufficiently homogeneous. Due to the small size of the pups all of the 21-day-old pup bodies were passed through the grinder together. […] New chloroform was added to the remaining aqueous phase, the mixture was once again centrifuged, and the chloroform layer was extracted and added to the previously extracted chloroform layer. […] One hemisphere was thawed briefly and dissected over ice to separate the brainstem, cerebellum, cortex, hippocampus, striatum, and the rest of the brain. […] The homogenizer was then washed with methanol, which was then transferred to the test tube containing the homogenized brain and KCl. […] The chloroform layer was extracted and new chloroform was added to the aqueous phase. […] At 8 weeks postweaning all the feces produced by a rat in 24 h were collected. […] Mean PUFA excretion (percentage of intake) was determined and applied to all animals to determine PUFA excretion. […] Nu-Check Prep, Elysian, MN) was added to the TLE. […] Samples were injected in […] mode. The injector and detector ports were set at 250°C. […] The carrier gas was helium, set to a constant flow rate of 0.7 ml/min. Peaks were identified by retention times of authentic FAME standards (Nu-Chek Prep). […] The concentrations were expressed on a per gram basis then multiplied by total weight of the tissue to determine the total amount of each fatty acid in the tissue.

[2] = Text: At 15 weeks postweaning, rats were subjected to surgery to implant a catheter into their jugular vein. The animals were anesthetized using isoflurane inhalation (5% induction, 1–3% maintenance). Before the incision was made, hair was shaved from the incision site and the site was sterilized with iodine and ethanol. A transverse incision was made anterior to the upper thorax. The jugular vein was located by blunt dissection. The vein was isolated and tied off. The vein was then nicked and a catheter (PE 50; Intramedic, Sparks, MD) with a 3.5 cm silastic tubing end (VWR, Mississauga, ON, Canada) was inserted into the vein. The catheter was secured using 3.0 silk sutures and a 16 gauge Angiocath (Becton Dickinson, Mississauga, ON, Canada) was used to guide the catheter subcutaneously to a site outside the body near the scapula. An incision was made at this site and the catheter was tucked beneath the skin at the incision site. The incision site was stapled to protect the catheter from the rats. The incision site on the chest was closed with 4.0 silk sutures and the rats were allowed to recover from the anesthetic under a heat lamp. Approximately 24 h after the surgery, the tail vein of the rats was cannulated with a 24 gauge Angiocath (Becton Dickinson). While the rats were restrained, the staple closing the incision site on the scapula was removed and the jugular vein catheter was connected to a longer polyethylene catheter. The rats were then placed in an infusion box that contained food, a chew toy, and bedding from the rat's cage. The tail vein catheter was then connected to an infusion line. Rats were able to move freely within the infusion box throughout the infusion.
Modified from the method of Rapoport, Igarashi, and Gao ([38]); 4.5 μmol/100 g body weight of ^2H-ALA (^2H14-ALA, purity >95% confirmed by GC-FID and GC-MS; Cayman Chemical, Ann Arbor, MI) was infused into the tail vein for 3 h. To prepare the infusate, a known amount of ^2H-ALA was dissolved in 5 mM HEPES buffer (pH 7.4) containing 50 mg/ml fatty acid-free BSA. The infusate was mixed by sonication at 37°C. An infusion pump (Harvard Apparatus PHD 2000; Holliston, MA) was used to infuse 3.78 ml of tracer solution at a constant rate of 0.021 ml/min for 3 h. Immediately before the infusion and every 30 min during the infusion 0.2 ml of blood was drawn from the jugular vein. The jugular vein catheter was flushed with heparinized saline (5% by volume) after every blood draw to prevent coagulation in the line. After 180 min of the infusion, 1 ml of blood was drawn from the jugular vein and the animals were euthanized with a lethal injection of T-61 into the tail vein. All blood samples were centrifuged for 10 min (PC-100 microcentrifuge; Diamed, ON, Canada) and the plasma was collected and stored at −80°C.
Plasma volume was determined using the method of Schreihofer, Hair, and Stepp as modified by Gao et al.([24], [39]). Briefly, a known amount of Evans Blue dye was injected into the tail veins of the rats. After 15 min, 1 ml of blood was drawn from the jugular vein, twice. The plasma was collected as described above, and 0.1 ml of plasma was diluted into 1 ml of saline. Absorbance at 604 nm was measured with a Nanodrop 1000 and by comparing the absorbance to a standard curve, the concentration of the dye was determined.
Fifty microliters of plasma were added to a test tube which contained known amounts of unesterified 17:0 standard and di-17:0 phosphatidylcholine standard. Lipids were extracted from the plasma using the method of Folch, Lees, and Sloane Stanley ([28]), as described above.
Thin layer chromatography (TLC) was used to separate esterified and unesterified lipids. The TLE was dried under N2 and reconstituted in 250 μl chloroform. TLC plates (TLC silica gel 60, EMD) that were washed in chloroform and methanol (2:1) were activated by heat at 100°C for 1 h.

[3] = average over 15 weeks, listed as DHA diet

CC/C=C\C/C=C\C/C=C\CCCCCCCC(=O)O [ALA, α-linolenic acid]
Fecal Excretion of LNA ([1]; 15 weeks): 877 µmol | Metabolic consumption of dietary PUFA (n-6) ([1]; 15 weeks): 147161 µmol | Fecal excretion ([1]; 15 weeks): 57 ± 2 µmol | Body Content of n-6 PUFA, Day 105 ([1]; 15 wk diet): 29170 µmol | Brain Content of n-6 PUFA, Day 105 ([1]; 15 wk diet): 20 µmol | Total Accretion: 18:3n-6 ([1]; 15 wk diet): 52 µmol | Total Accretion: 20:2n-6 ([1]; 15 wk diet): 169 µmol | Total Accretion: 22:4n-6 ([1]; 15 wk diet): 138 µmol | Total Accretion: ARA ([1]; 15 wk diet): 1806 µmol | Total Accretion: LNA ([1]; 15 wk diet): 25157 µmol | Total Accretion: Total n-6 PUFA ([1]; 15 wk diet): 27489 µmol | Body content of n-3 PUFAs, Day 105 ([1]; 15 wk diet, n = 11): 2352 ± 166^b μmol | Brain content of n-3 PUFAs, Day 105 ([1]; 15 wk diet, n = 11): 14 ± 2^b μmol | Dietary PUFA excreted in the feces [1]: 0.27 ± 0.002% | Brain DHA accretion rate (balance study) ([1]; average over 15 weeks): 0.032 ± 0.005 µmol/day | Total DHA synthesis-accretion rate (balance study) ([1]; average over 15 weeks, body + brain, listed as ALA diet): 4.2 µmol/day and 4.2 ± 0.4 µmol/day | DHA synthesis and accretion in ALA-fed rats relative to brain DHA accretion of DHA-fed rats ([1]; balance study): 100 fold | Dietary ALA metabolically consumed ([1]; balance study): approximately 90% | Body Content of n-6 PUFA, Day 0 ([1]; baseline): 1491 µmol | Brain Content of n-6 PUFA, Day 0 ([1]; baseline): 14 µmol | Body content of n-3 PUFAs, Day 0 ([1]; baseline, 21-day-old pups, n = 2): 139 ± 3 µmol | Brain content of n-3 PUFAs, Day 0 ([1]; baseline, n = 2): 10 ± 0.6 µmol | Total accretion: 20:3n-3 ([1]; body + brain, 15 wk diet): 110 ± 11^ab μmol | Total accretion: ALA ([1]; body + brain, 15 wk diet): 1500 ± 100^b μmol | Total accretion: DHA ([1]; body + brain, 15 wk diet): 440 ± 39^b μmol | Total accretion: DPAn-3 ([1]; body + brain, 15 wk diet): 90 ± 7^b μmol | Total accretion: EPA ([1]; body + brain, 15 wk diet): 70 ± 10^b μmol | Total accretion: Total n-3 PUFA ([1]; body + brain, 15 wk diet): 2209 ± 107^b μmol | Metabolic consumption of dietary PUFAs [1]: 19037 ± 617^b μmol | Mean plasma [^2H-ALA]unesterified during infusion ([2]; 4.5 μmol/100 g ^2H-ALA i.v. over 3 h): 2.5 ± 0.5 nmol/mL | Smax,i (maximum first derivative) ([2]; 15 wk diet, 3 h ^2H-ALA infusion, n = 4): 0.339 ± 0.135 nmol/min | Daily Secretion Rate (daily DHA synthesis rate) ([2]; 15 wk diet, n = 4): 1452 ± 395 nmol/day | FDHA (turnover rate of esterified plasma DHA) ([2]; 15 wk diet, n = 4): 0.0002 ± 4e-05 min⁻¹ | Jsyn (synthesis rate of DHA from ALA) ([2]; 15 wk diet, n = 4): 1.008 ± 0.274 nmol/min | k1,DHA (synthesis-secretion coefficient for DHA synthesis from ALA) ([2]; 15 wk diet, n = 4): 0.131 ± 0.04 mL/min | DHA synthesis rate relative to brain DHA uptake rate ([2]; ALA-fed rats, infusion synthesis vs ^14C-DHA uptake): approximately 3 fold | DHA synthesis rate from ALA (steady-state infusion) ([2]; at 15 weeks postweaning): 1.5 µmol/day

CC/C=C\C/C=C\C/C=C\C/C=C\C/C=C\C/C=C\CCC(=O)O [DHA, Docosahexaenoic acid]
Metabolic consumption of dietary PUFA (n-6) ([1]; 15 weeks): 157517 µmol | Fecal excretion ([1]; 15 weeks): 10 ± 0.4 µmol | Body Content of n-6 PUFA, Day 105 ([1]; 15 wk diet): 32391 µmol | Brain Content of n-6 PUFA, Day 105 ([1]; 15 wk diet): 17 µmol | Total Accretion: 18:3n-6 ([1]; 15 wk diet): 41 µmol | Total Accretion: 20:2n-6 ([1]; 15 wk diet): 167 µmol | Total Accretion: 22:4n-6 ([1]; 15 wk diet): 97 µmol | Total Accretion: ARA ([1]; 15 wk diet): 1539 µmol | Total Accretion: LNA ([1]; 15 wk diet): 28810 µmol | Total Accretion: Total n-6 PUFA ([1]; 15 wk diet): 30720 µmol | Dietary PUFA excreted in the feces [1]: 0.07 ± 0.02% | Brain DHA accretion rate (balance study) ([1]; average over 15 weeks): 0.042 ± 0.007 µmol/day | Brain DHA accretion rate (balance study) [1, 3]: 0.042 µmol/day | DHA uptake and accretion rate into the brain (balance study) [1, 3]: 42 nmol/day and 42 ± 7 nmol/day | Brain Content of n-6 PUFA, Day 0 ([1]; baseline): 14 µmol | Total accretion: DHA ([1]; body + brain, 15 wk diet): 1119 ± 62^c μmol | Metabolic consumption of dietary PUFAs [1]: 15783 ± 548^b,** μmol | Reduction of DHA synthesis by 2% dietary DHA ([2]; synthesis rate not quantifiable in DHA-fed rats): greater than 30 fold
